Experimental data taken from US20120329787A1, “FUNGICIDAL PYRANONES AND OXAZINONES” (E.I. DU PONT DE NEMOURS AND COMPANY, priority 2011, published 2012).
Marks after values point to notes of the source that are not given here.

What was measured:
Type in all cases: in vivo
Botrytis cinerea = experiment: Test A: tomato Botrytis, spray on tomato seedlings the day before inoculation; details: 200 ppm test suspension; for pest or weed control at 200 ppm: Botrytis cinerea, 120 h, read-out: Test A rating (100 = 100% disease control, 0 = no disease control)
Source text: General protocol for preparing test suspensions for Tests A-I: the test compounds were first dissolved in acetone in an amount equal to 3% of the final volume and then suspended at the desired concentration (in ppm) in acetone and purified water (50/50 mix by volume) containing 250 ppm of the surfactant Trem® 014 (polyhydric alcohol esters). The resulting test suspensions were then used in Tests A-I. Spraying a 200 ppm test suspension to the point of run-off on the test plants was the equivalent of a rate of 500 g/ha. […] (An asterisk “*” next to the rating value indicates a 40 ppm test suspension was used.) The test suspension was sprayed to the point of run-off on tomato seedlings. The following day, the seedlings were inoculated with a spore suspension of Botrytis cinerea (the causal agent of tomato Botrytis) and incubated in a saturated atmosphere at 20° C. for 48 h, and then moved to a growth chamber at 24° C. for 3 additional days, after which time visual disease ratings were made. […] A dash (-) indicates no test results. All results are for 200 ppm except where followed by an asterisk “*”, which indicates a 40 ppm.

Alternaria solani = experiment: Test B: tomato early blight, spray on tomato seedlings the day before inoculation; details: 200 ppm test suspension; for pest or weed control at 200 ppm: Alternaria solani, 168 h, read-out: Test B rating (100 = 100% disease control, 0 = no disease control)
Source text: General protocol for preparing test suspensions for Tests A-I: the test compounds were first dissolved in acetone in an amount equal to 3% of the final volume and then suspended at the desired concentration (in ppm) in acetone and purified water (50/50 mix by volume) containing 250 ppm of the surfactant Trem® 014 (polyhydric alcohol esters). The resulting test suspensions were then used in Tests A-I. Spraying a 200 ppm test suspension to the point of run-off on the test plants was the equivalent of a rate of 500 g/ha. […] (An asterisk “*” next to the rating value indicates a 40 ppm test suspension was used.) The test suspension was sprayed to the point of run-off on tomato seedlings. The following day, the seedlings were inoculated with a spore suspension of Alternaria solani (the causal agent of tomato early blight) and incubated in a saturated atmosphere at 27° C. for 48 h, and then moved to a growth chamber at 20° C. for 5 days, after which time visual disease ratings were made. […] A dash (-) indicates no test results. All results are for 200 ppm except where followed by an asterisk “*”, which indicates a 40 ppm.

Septoria nodorum = experiment: Test E: Septoria glume blotch, spray on wheat seedlings the day before inoculation; details: 200 ppm test suspension; for pest or weed control at 200 ppm: Parastagonospora nodorum, 264 h, read-out: Test E rating (100 = 100% disease control, 0 = no disease control)
Source text: General protocol for preparing test suspensions for Tests A-I: the test compounds were first dissolved in acetone in an amount equal to 3% of the final volume and then suspended at the desired concentration (in ppm) in acetone and purified water (50/50 mix by volume) containing 250 ppm of the surfactant Trem® 014 (polyhydric alcohol esters). The resulting test suspensions were then used in Tests A-I. Spraying a 200 ppm test suspension to the point of run-off on the test plants was the equivalent of a rate of 500 g/ha. […] (An asterisk “*” next to the rating value indicates a 40 ppm test suspension was used.) The test suspension was sprayed to the point of run-off on wheat seedlings. […] A dash (-) indicates no test results. All results are for 200 ppm except where followed by an asterisk “*”, which indicates a 40 ppm.

Septoria tritici = experiment: Test F: wheat leaf blotch, spray on wheat seedlings the day before inoculation; details: for pest or weed control at 200 ppm: Zymoseptoria tritici, 504 h, read-out: Test F rating (100 = 100% disease control, 0 = no disease control)
Source text: General protocol for preparing test suspensions for Tests A-I: the test compounds were first dissolved in acetone in an amount equal to 3% of the final volume and then suspended at the desired concentration (in ppm) in acetone and purified water (50/50 mix by volume) containing 250 ppm of the surfactant Trem® 014 (polyhydric alcohol esters). The resulting test suspensions were then used in Tests A-I. Spraying a 200 ppm test suspension to the point of run-off on the test plants was the equivalent of a rate of 500 g/ha. […] (An asterisk “*” next to the rating value indicates a 40 ppm test suspension was used.) The test suspension was sprayed to the point of run-off on wheat seedlings. The following day, the seedlings were inoculated with a spore suspension of Septoria tritici (the causal agent of wheat leaf blotch) and incubated in a saturated atmosphere at 24° C. for 48 h, and then the seedlings were moved to a growth chamber at 20° C. for 19 additional days, after which time visual disease ratings were made. […] A dash (-) indicates no test results. All results are for 200 ppm except where followed by an asterisk “*”, which indicates a 40 ppm.

[1] = test system: Puccinia recondita f. sp. tritici; experiment: Test G: wheat leaf rust, spray on wheat seedlings after inoculation (curative); details: 200 ppm test suspension, sprayed after inoculation; for pest or weed control at 200 ppm: Puccinia recondita, 96 h, read-out: Test G rating (100 = 100% disease control, 0 = no disease control)
Source text: General protocol for preparing test suspensions for Tests A-I: the test compounds were first dissolved in acetone in an amount equal to 3% of the final volume and then suspended at the desired concentration (in ppm) in acetone and purified water (50/50 mix by volume) containing 250 ppm of the surfactant Trem® 014 (polyhydric alcohol esters). The resulting test suspensions were then used in Tests A-I. Spraying a 200 ppm test suspension to the point of run-off on the test plants was the equivalent of a rate of 500 g/ha. […] (An asterisk “*” next to the rating value indicates a 40 ppm test suspension was used.) Wheat seedlings were inoculated with a spore suspension of Puccinia recondita f. sp. tritici (the causal agent of wheat leaf rust) and incubated in a saturated atmosphere at 20° C. for 24 h, and then moved to a growth chamber at 20° C. for 2 days. At the end of this time, the test suspension was sprayed to the point of run-off, and then the seedlings were moved to a growth chamber at 20° C. for 4 days after which time visual disease ratings were made. […] A dash (-) indicates no test results. All results are for 200 ppm except where followed by an asterisk “*”, which indicates a 40 ppm.

[2] = test system: Puccinia recondita f. sp. tritici; experiment: Test H: wheat leaf rust, spray on wheat seedlings the day before inoculation; details: 200 ppm test suspension, sprayed before inoculation; for pest or weed control at 200 ppm: Puccinia recondita, 168 h, read-out: Test H rating (100 = 100% disease control, 0 = no disease control)
Source text: General protocol for preparing test suspensions for Tests A-I: the test compounds were first dissolved in acetone in an amount equal to 3% of the final volume and then suspended at the desired concentration (in ppm) in acetone and purified water (50/50 mix by volume) containing 250 ppm of the surfactant Trem® 014 (polyhydric alcohol esters). The resulting test suspensions were then used in Tests A-I. Spraying a 200 ppm test suspension to the point of run-off on the test plants was the equivalent of a rate of 500 g/ha. […] (An asterisk “*” next to the rating value indicates a 40 ppm test suspension was used.) The test suspension was sprayed to the point of run-off on wheat seedlings. The following day, the seedlings were inoculated with a spore suspension of Puccinia recondita f. sp. tritici (the causal agent of wheat leaf rust) and incubated in a saturated atmosphere at 20° C. for 24 h, and then moved to a growth chamber at 20° C. for 6 days, after which time visual disease ratings were made Results for Tests A-I are given in Table A. […] A dash (-) indicates no test results. All results are for 200 ppm except where followed by an asterisk “*”, which indicates a 40 ppm.

[3] = test system: Erysiphe graminis f. sp. tritici; experiment: Test I: wheat powdery mildew, spray on wheat seedlings the day before inoculation; details: 200 ppm test suspension; for pest or weed control at 200 ppm: Blumeria graminis, 168 h, read-out: Test I rating (100 = 100% disease control, 0 = no disease control)
Source text: General protocol for preparing test suspensions for Tests A-I: the test compounds were first dissolved in acetone in an amount equal to 3% of the final volume and then suspended at the desired concentration (in ppm) in acetone and purified water (50/50 mix by volume) containing 250 ppm of the surfactant Trem® 014 (polyhydric alcohol esters). The resulting test suspensions were then used in Tests A-I. Spraying a 200 ppm test suspension to the point of run-off on the test plants was the equivalent of a rate of 500 g/ha. […] (An asterisk “*” next to the rating value indicates a 40 ppm test suspension was used.) The test suspension was sprayed to the point of run-off on wheat seedlings. The following day, the seedlings were inoculated with a spore dust of Erysiphe graminis f. sp. tritici, (the causal agent of wheat powdery mildew) and incubated in a growth chamber at 20° C. for 7 days, after which time visual disease ratings were made. […] A dash (-) indicates no test results. All results are for 200 ppm except where followed by an asterisk “*”, which indicates a 40 ppm.

Row | Molecule | Test A rating (100 = 100% disease control, 0 = no disease control) (Botrytis cinerea) | Test B rating (100 = 100% disease control, 0 = no disease control) (Alternaria solani) | Test E rating (100 = 100% disease control, 0 = no disease control) (Septoria nodorum) | Test F rating (100 = 100% disease control, 0 = no disease control) (Septoria tritici; 40 ppm test suspension (asterisk)) | Test G rating (100 = 100% disease control, 0 = no disease control) [1] | Test H rating (100 = 100% disease control, 0 = no disease control) [2] | Test I rating (100 = 100% disease control, 0 = no disease control) [3] | pest or weed control at 200 ppm (Botrytis cinerea) | pest or weed control at 200 ppm (Alternaria solani) | pest or weed control at 200 ppm (Septoria nodorum) | pest or weed control at 200 ppm (Septoria tritici; 200 ppm test suspension) | pest or weed control at 200 ppm [1] | pest or weed control at 200 ppm [2] | pest or weed control at 200 ppm [3] | Test F rating (100 = 100% disease control, 0 = no disease control) (Septoria tritici; 200 ppm test suspension)
1 | 4-(2-chloro-3,5-dimethoxyphenyl)-3,6-dimethyl-5-(2,4,6-trifluorophenyl)-2H-pyran-2-one [Compound 58] | 100% | 100% | 100% | 100* % | 100% | 100% | 100% | – | – | – | – | – | – | – | –
2 | COc1cc(OC)cc(-c2c(-c3ccccc3F)noc(=O)c2-c2c(F)cc(F)cc2F)c1 [Compound 23, 4-(3,5-dimethoxyphenyl)-3-(2-fluorophenyl)-5-(2,4,6-trifluorophenyl)-6H-1,2-oxazin-6-one] | – | – | – | – | – | – | – | 100% | 93% | 95% | 99% | 9% | 100% | 0% | –
3 | COc1cc(OC)cc(-c2c(C)noc(=O)c2-c2c(F)cc(F)cc2F)c1 [Compound 24] | 98% | 63% | 0% | – | 0% | – | 99% | – | – | – | – | – | – | – | 99%
4 | COc1cc(OC)c(Cl)c(-c2c(C)noc(=O)c2-c2c(F)cc(F)cc2F)c1 [Compound 25, 4-(2-chloro-3,5-dimethoxyphenyl)-3-methyl-5-(2,4,6-trifluorophenyl)-6H-1,2-oxazin-6-one] | – | – | – | – | – | – | – | 100% | 97% | 0% | 100% | 100% | 100% | 100% | –
5 | COc1cc(OC)cc(-c2c(-c3ccccc3F)c(C)oc(=O)c2-c2ccccc2)c1 [Compound 26] | 99% | 93% | 0% | – | 9% | 100% | 27% | – | – | – | – | – | – | – | 95%
6 | COc1cc(OC)cc(-c2c(-c3ccc(F)cc3F)c(C)oc(=O)c2-c2ccccc2)c1 [Compound 27] | 98% | 100% | 99% | – | 93% | 100% | 82% | – | – | – | – | – | – | – | 99%
7 | COc1cccc(-c2c(-c3ccccc3F)c(C)oc(=O)c2-c2ccccc2)c1 [Compound 28] | 100% | 0% | 0% | – | 0% | 99% | 64% | – | – | – | – | – | – | – | 98%
8 | COc1cc(OC)c(Cl)c(-c2c(-c3c(F)cc(F)cc3F)c(C)oc(=O)c2C)c1Cl [Compound 59] | 100% | 0% | 0% | – | 82% | 100% | 90% | – | – | – | – | – | – | – | –
9 | COc1cc(OC)cc(-c2c(-c3ccccc3F)c(C)oc(=O)c2C)c1 [Compound 60] | – | 26% | 0% | – | 96% | 100% | 98% | – | – | – | – | – | – | – | 100%
